{"source": "patent US8394832B2", "about": "“Methods and compositions using immunomodulatory compounds for the treatment of immunodeficiency disorders” (Celgene Corporation, priority 2004, dated 2013)", "assay_type_in_all_cases": "cell-based, human", "key": {"B cells [1]": {"test_system": "B cells", "assay": "Morphological changes of activated B cells (phase contrast microscopy)", "details": "treated with compound and anti-IgM (FIG. 7B)", "method": "(§1) Human buffy coat (50 ml) was diluted with 50 ml sterile PBS (Ca^++, Mg^++ free), and mixed gently. A 25 ml aliquot of diluted buffy coat was transferred to each 50 ml centrifuge tube, and Histopaque-1077 (14 ml, #1077-1, Sigma) was gently layered into the bottom of the tube. The sample was centrifuged at 2,000 rpm for 30 min at room temperature. The interface containing mononuclear cells was transferred into 50 ml centrifuge tube, and washed once with PBS (1200 rpm, 5 min). The supernatant was discarded. Cell pellet was resuspended in Miltenyi buffer. Anti-CD19^+ microbeads were added to the suspension (10^7 cells in 80 μl of buffer, 20 μl antibody beads for 10^7 cells) and incubated for 15 min at 4° C. Cell pellet was washed once and resuspended in 1 ml Miltenyi buffer. The cell suspension was added to the magnetic column, washed with 10 ml Miltenyi buffer in the column. CD19^+ cells are released by 1 ml Miltenyi Buffer without magnetic field. CD19^+ cells were washed twice with RPMI complete medium. B cells (2×10^5) were plated in 96 well plate.\nB cells were treated with 1,3-dioxo-(2,6-dioxopiperidin-3-yl)-4-aminoisoindoline (FIG. 6) in presence of anti IgM, anti CD40 and IL-4 for 3 days. The images were captured using phase contrast microscopy with MetaMorph software.\nMorphological changes also support IMiDs' costimulation of B cells to drive their proliferation. […]"}, "CD69": {"test_system": "CD69", "assay": "FACS analysis of CD69 expression in CD19+ B cells", "method": "as §1\nB cells were treated with 1,3-dioxo-(2,6-dioxopiperidin-3-yl)-4-aminoisoindoline (FIG. 3A) or 1-oxo-(2,6-dioxopiperidin-3-yl)-4-aminoisoindoline (FIG. 3B) in presence of anti IgM, anti CD40 and IL-4 for 3 days. The suspension of B cells was washed by PBS once, and incubated with FITC conjugated anti human CD69 for 30 min in the dark. B cells were subject to FACS analysis using flow cytometer (EPICS XL-MCL, Beckman Coulter Company).\nTo assess whether the effects of immunomodulatory compounds on IL-4 signaling impact on IL-4 mediated B cell activation, FACS array of immediate early expression marker CD69 expression at triplicates and six doses was examined using 1,3-dioxo-(2,6dioxopiperidin-3-yl)-4-aminoisoindoline or 1-oxo-(2,6-dioxopiperidin-3-yl)-4-aminoisoindoline. […] Thus, it is clear that immunomodulatory compounds have no impact on this process."}, "TLR 9": {"test_system": "TLR 9", "assay": "TLR 9 expression by FACS array in B cells", "details": "0.0006-60 μM, in combination with other stimuli, particularly IgM, 3 days (FIGS. 8A-8D)", "method": "as §1\nB cells were plated in 96 well plate and treated with 1,3-dioxo-(2,6-dioxopiperidin-3-yl)-4-aminoisoindoline at concentrations of 60 μM, 6 μM, 0.6 μM, 0.06 μM, 0.006 μM and 0.0006 μM in presence of stimuli for 3 days. […] B cells were resuspended in 150 μl PBS containing 1% BSA and read in FACS array instrument (BD Bioscience)."}, "B cells [2]": {"test_system": "B cells", "assay": "B cell proliferation by BrdU ELISA", "details": "3 days (FIG. 7A)", "method": "as §1\nB cells were pretreated with 1,3-dioxo-(2,6-dioxopiperidin-3-yl)-4-aminoisoindoline or 1-oxo-(2,6-dioxopiperidin-3-yl)-4-aminoisoindoline at the concentrations of 60 μM, 6 μM, 0.6 μM, 0.06 μM, 0.006 μM, and 0.0006 μM for 30 min, then were added 2 μg/ml of anti-IgM, 2 μg/ml of anti CD40, 40 ng/ml IL-4, 100 ng/ml of recombinant BAFF, and/or 0.5 μg/ml of LPS. B cells were typically treated with the immunomodulatory compound alone or in presence of one or more of above stimuli for 3 days. Stimulated B cells with or without the treatment with immunomodulatory compound were used for cell proliferation assay and cytokines analysis.\nThe crosslinking of B cell receptor antigen (“BCR”) is the primary signal for B cell activation in response to antigen, and is critical in initializing subsequent B cell activation, proliferation, and differentiation. To assess B cell activation, B cells were treated with 1,3-dioxo-(2,6-dioxopiperidin-3-yl)-4-aminoisoindoline or 1-oxo-(2,6-dioxopiperidin-3-yl)-4-aminoisoindoline in presence of stimuli for 3 days. 25 μl BrdU was added to 250 μl cell culture 24 hours before harvesting cells. B cells were dried at 60° C. after removal of labeling supernatant. 100 μl FixDenat solution was added to fix cells for 30 min at room temperature. FixDenat solution was removed by tapping plate, then 100 μl anti-BrdU-POD was added each well for 90 min, at room temperature, and the plate was washed three 3 times. 100 μl of substrate was added to plate for 10 min, then 100 μl stop solution was added. Absorbance was measured by using an ELISA microplate reader (Molecular Devices) at OD 450 nm. […]"}, "STAT6": {"test_system": "STAT6", "assay": "Western blotting of phospho-STAT6 in IL-4 stimulated CD-19 B cells", "details": "B cells pretreated 30 minutes, then 100 ng/ml IL-4 for 30 minutes (FIG. 11D)", "method": "CD-19 B cells (2×10^6/ml) were pretreated with 1,3-dioxo-(2,6-dioxopiperidin-3-yl)-4-aminoisoindoline at 10 μM and 1 μM for 30 minutes. IL-4 (100 ng/ml) was added to cell suspension for 30 minutes, and the cell pellet was washed once by PBS and lysed with 50 μl of the sample buffer. Cell lysates were heated at 100° C. for 5 minutes, and 20 μl of cell lysates were loaded to 4-20% Tris-glycine SDS-PAGE (Invitrogen). The transferred membrane was blotted with 1: 1000 anti-phopho STAT6 antibody (Cell signaling) for overnight at 4° C. prior to secondary HRP conjugated anti rabbit antibody. The signal of the membrane was developed by ECL kit, following the manufacturer's instructions.\nBecause activation of STAT6 is important in IL-4 induced IgE and IgG1 class switching, whether immunomodulatory compounds could inhibit phosphorylation of STAT6 was investigated. B cells were pretreated with 1,3-dioxo-(2,6-dioxopiperidin-3-yl)-4-aminoisoindoline for 30 minutes, then stimulated with 100 ng/ml of IL-4 for 30 minutes. The activation of STAT6 was assessed by anti-phospho-STAT6 (Tyr 641)."}}}
{"smiles": "Nc1cccc2c1C(=O)N(C1CCC(=O)NC1=O)C2=O", "note": "(stereo not shown) [1,3-dioxo-(2,6-dioxopiperidin-3-yl)-4-aminoisoindoline]", "values": [{"measurement": "morphological changes of B cells", "setting": "B cells [1]", "result": "formed large aggregates"}, {"measurement": "CD69 expression", "setting": "CD69; CD19+ B cells treated with anti human IgM, anti human CD40 and IL-4, 3 days (FIGS. 3A, 3B)", "result": "dose-dependently enhanced"}, {"measurement": "CD69 expression", "setting": "CD69; IL-4 stimulated CD19+ B cells, triplicates, six doses (FIGS. 10A and B)", "result": "neither immunomodulatory compound inhibited"}, {"measurement": "TLR 9 expression", "setting": "TLR 9", "result": "increase"}, {"measurement": "B cell proliferation", "setting": "B cells [2]; combined with IgM (anti-IgM)", "result": "enhance"}, {"measurement": "effect on B cell activation/proliferation", "setting": "B cells [2]; compound alone", "result": "minimal effect"}, {"measurement": "phosphorylation of STAT6 (Tyr 641)", "setting": "STAT6", "result": "block phosphorylation of STAT6"}]}
